Laboratory results reported in patent publication US20180320217A1, “METHODS FOR SAMPLING AND MEASURING ORAL LAVAGE PROTEINS” (The Procter & Gamble Company, priority 2017, published 2018).
Values joined by “and” are separate entries in the source; they are usually repeats but may differ in a detail not shown here. Identical values can stand only once. “Also recorded” adds a separate entry of the source. Counter-ions that a name gives are not always drawn.

Legend:
Malate dehydrogenase [1] = molecular target: T1, Malate dehydrogenase (Sus scrofa, UniProt P00346); assay: Effect of concentrations of NAD+ on formation of formazan dyes (FIG. 5); type: biochemical; design: purchased Sigma-Aldrich 10127248001 / 10127914001 (MDH); settings: 2 mM WST-8, 15 mM malate, 1.5 units malate dehydrogenase
T1 sequence (P00346 25-338): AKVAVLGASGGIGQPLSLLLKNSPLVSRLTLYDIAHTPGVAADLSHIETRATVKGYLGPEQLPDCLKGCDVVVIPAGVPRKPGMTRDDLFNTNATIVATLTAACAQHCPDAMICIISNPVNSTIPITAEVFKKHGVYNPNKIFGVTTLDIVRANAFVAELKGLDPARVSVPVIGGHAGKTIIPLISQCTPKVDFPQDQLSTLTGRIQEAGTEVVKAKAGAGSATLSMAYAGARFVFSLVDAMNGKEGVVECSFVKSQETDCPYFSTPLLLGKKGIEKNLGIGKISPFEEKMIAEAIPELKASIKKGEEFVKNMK
Method: To determine optimal conditions for quantifying enzymes in the gingival brush samples, oral lavage and gingival plaques, an experiment was carried out to determine the effect of NAD+ on conversion of tetrazolium salts to formazan dyes. […] Absorbance was taken at every 5 minutes for 2 hours.

diaphorase [2] = assay: Formation of formazan dyes: only diaphorase and malate (TABLE 14); type: biochemical, Clostridium kluyveri; settings: mean of three experiments
diaphorase [3] = assay: Effect of concentrations of tetrazolium salts on formation of formazan dyes (FIGS. 4A-4G); type: biochemical; settings: 15 mM NADH+H, 20 μg diaphorase, pH 7.5; FIGS. 4A to 4G
Method: On the idea that higher concentrations of tetrazolium salts in the assay buffer would likely result in more formazan dyes in the reaction, various concentrations of tetrazolium salts were added to a reaction buffer and the formation of formazan dyes were measured at 0, 30 and 60 minutes. […] The reactions were performed at room temperature. Absorbance was taken at 0, 30 and 60 minutes.

diaphorase [4] = assay: Formation of formazan dyes: NADH and diaphorase, absence of malate (TABLE 7); type: biochemical, Clostridium kluyveri; settings: NADH and diaphorase, absence of malate
[5] = system: Malate dehydrogenase and diaphorase; assay: Formation of formazan dyes: Malate dehydrogenase and diaphorase, absence of malate (TABLE 9); type: biochemical, pig heart
diaphorase [6] = assay: Formation of formazan dyes: NADH, diaphorase and malate (TABLE 8); type: biochemical, Clostridium kluyveri; settings: NADH, diaphorase and malate
oral lavage [7] = assay: Formation of formazan dyes: oral lavage and diaphorase, not malate (TABLE 11); type: biochemical, human
oral lavage [8] = assay: Formation of formazan dyes: oral lavage, malate and diaphorase (TABLE 12); type: biochemical, human; settings: oral lavage, malate and diaphorase
[9] = Formation of formazan dyes: control buffer and 1-Methoxy PMS, absence of malate (TABLE 21); type: biochemical; settings: monosodium salt
[10] = Formation of formazan dyes: control buffer, malate and 1-Methoxy PMS (TABLE 22); type: biochemical
[11] = system: Malate dehydrogenase and diaphorase; assay: Formation of formazan dyes: Malate dehydrogenase, diaphorase and malate (TABLE 10); type: biochemical, pig heart
Malate dehydrogenase [12] = molecular target: T1, Malate dehydrogenase; assay: Formation of formazan dyes: Malate dehydrogenase and 1-Methoxy PMS, absence of malate (TABLE 17); type: biochemical, pig heart; design: L-malate dehydrogenase (pig heart); purchased Sigma-Aldrich 10127248001 / 10127914001
oral lavage [13] = assay: Formation of formazan dyes: oral lavage and 1-Methoxy PMS, absence of malate (TABLE 19); type: biochemical, human; settings: monosodium salt
[14] = Formation of formazan dyes: NADH and 1-methoxy PMS, absence of malate (TABLE 15); type: biochemical
diaphorase [15] = assay: Formation of formazan dyes: only diaphorase, not malate (TABLE 13); type: biochemical, Clostridium kluyveri; settings: mean of three experiments
[16] = Formation of formazan dyes: NADH, malate and 1-methoxy PMS (TABLE 16); type: biochemical; settings: monosodium salt
[17] = UV absorbance analysis of formazan products, TABLE 6; settings: in the presence of 1-methoxy PMS
Malate dehydrogenase [18] = molecular target: T1, Malate dehydrogenase; assay: Effect of concentrations of malate on formation of formazan dyes (FIG. 6); type: biochemical; design: purchased Sigma-Aldrich 10127248001 / 10127914001 (MDH); settings: 2 mM WST-8, 128.5 μM NAD+, 1.5 units malate dehydrogenase
Method: Substrate concentrations are important parameters in an enzymatic assay. An experiment was carried out to determine the effect of malate concentrations on formation of formazan dyes. […] Absorbance was measured every 5 minutes for 2 hours. […] But at low concentrations from 0.001 mM to 15.6 mM, formation of formazan dyes was positively correlated with malate concentrations.

## NC(=O)c1ccc[n+]([C@@H]2O[C@H](COP(=O)([O-])OP(=O)(O)OC[C@H]3O[C@@H](n4cnc5c(N)ncnc54)[C@H](O)[C@@H]3O)[C@@H](O)[C@H]2O)c1 [NAD+, Nicotinamide adenine dinucleotide]
Malate dehydrogenase [1]
  amount of formazan formation versus NAD+ concentration: proportional to the concentrations of NAD+

## COc1cc([N+](=O)[O-])ccc1-[n+]1nc(-c2ccc(S(=O)(=O)[O-])cc2S(=O)(=O)[O-])nn1-c1ccc([N+](=O)[O-])cc1.[Na+] [WST-8, 5-(2,4-disulfophenyl)-3-(2-methoxy-4-nitrophenyl)-2-(4-nitrophenyl)-2H-tetrazolium, inner salt, monosodium salt]
Diaphorase [2]; 0 h
  Absorbance, formation of formazan dyes (Means): 0.10
Diaphorase [2]; 1 h
  Absorbance, formation of formazan dyes (Means): 0.14
Diaphorase [2]; 2 h
  Absorbance, formation of formazan dyes (Means): 0.16
Diaphorase [2]; 3 h
  Absorbance, formation of formazan dyes (Means): 0.19
Diaphorase [2]; 4 h
  Absorbance, formation of formazan dyes (Means): 0.21
Diaphorase [2]; 6 h
  Absorbance, formation of formazan dyes (Means): 0.26
Diaphorase [2]; 8 h
  Absorbance, formation of formazan dyes (Means): 0.31
Diaphorase [2]; 10 h
  Absorbance, formation of formazan dyes (Means): 0.35
Diaphorase [2]; 12 h
  Absorbance, formation of formazan dyes (Means): 0.38
Diaphorase [3]
  concentration of tetrazolium salt at which absorbance reached peaks: 2 mM
Diaphorase [4]; 0 h
  Formation of formazan dyes, absorbance, Means 0 h: 3.54
Diaphorase [4]; 1 h
  Formation of formazan dyes, absorbance, Means 1 h: 3.72
Diaphorase [4]; 2 h
  Formation of formazan dyes, absorbance, Means 2 h: 3.77
Diaphorase [4]; 3 h
  Formation of formazan dyes, absorbance, Means 3 h: 3.77
Diaphorase [4]; 4 h
  Formation of formazan dyes, absorbance, Means 4 h: 3.63
Diaphorase [4]; 6 h
  Formation of formazan dyes, absorbance, Means 6 h: 3.64
Diaphorase [4]; 8 h
  Formation of formazan dyes, absorbance, Means 8 h: 3.66
Diaphorase [4]; 10 h
  Formation of formazan dyes, absorbance, Means 10 h: 3.65
Diaphorase [4]; 12 h
  Formation of formazan dyes, absorbance, Means 12 h: 3.67
[5]; Malate dehydrogenase and diaphorase, absence of malate, 0 h
  Formation of formazan dyes, absorbance, Means 0 h: 1.13
[5]; Malate dehydrogenase and diaphorase, absence of malate, 1 h
  Formation of formazan dyes, absorbance, Means 1 h: 1.84
[5]; Malate dehydrogenase and diaphorase, absence of malate, 2 h
  Formation of formazan dyes, absorbance, Means 2 h: 2.15
[5]; Malate dehydrogenase and diaphorase, absence of malate, 3 h
  Formation of formazan dyes, absorbance, Means 3 h: 2.32
[5]; Malate dehydrogenase and diaphorase, absence of malate, 4 h
  Formation of formazan dyes, absorbance, Means 4 h: 2.41
[5]; Malate dehydrogenase and diaphorase, absence of malate, 6 h
  Formation of formazan dyes, absorbance, Means 6 h: 2.62
[5]; Malate dehydrogenase and diaphorase, absence of malate, 8 h
  Formation of formazan dyes, absorbance, Means 8 h: 2.72
[5]; Malate dehydrogenase and diaphorase, absence of malate, 10 h
  Formation of formazan dyes, absorbance, Means 10 h: 2.80
[5]; Malate dehydrogenase and diaphorase, absence of malate, 12 h
  Formation of formazan dyes, absorbance, Means 12 h: 2.89
[5]; malate dehydrogenase and diaphorase (TABLE 9)
  reduction of tetrazolium dye in the absence of substrate malate: partially reduced
Diaphorase [6]; 0 h
  Formation of formazan dyes, absorbance, Means 0 h: 3.06
Diaphorase [6]; 1 h
  Formation of formazan dyes, absorbance, Means 1 h: 3.36
Diaphorase [6]; 2 h
  Formation of formazan dyes, absorbance, Means 2 h: 3.47
Diaphorase [6]; 3 h
  Formation of formazan dyes, absorbance, Means 3 h: 3.53
Diaphorase [6]; 4 h
  Formation of formazan dyes, absorbance, Means 4 h: 3.50
Diaphorase [6]; 6 h
  Formation of formazan dyes, absorbance, Means 6 h: 3.54
Diaphorase [6]; 8 h
  Formation of formazan dyes, absorbance, Means 8 h: 3.54
Diaphorase [6]; 10 h
  Formation of formazan dyes, absorbance, Means 10 h: 3.51
Diaphorase [6]; 12 h
  Formation of formazan dyes, absorbance, Means 12 h: 3.45
Oral lavage [7]; oral lavage and diaphorase, not malate, 0 h
  Formation of formazan dyes, absorbance, Means 0 h: 0.59
Oral lavage [7]; oral lavage and diaphorase, not malate, 1 h
  Formation of formazan dyes, absorbance, Means 1 h: 0.83
Oral lavage [7]; oral lavage and diaphorase, not malate, 2 h
  Formation of formazan dyes, absorbance, Means 2 h: 0.87
Oral lavage [7]; oral lavage and diaphorase, not malate, 3 h
  Formation of formazan dyes, absorbance, Means 3 h: 0.84
Oral lavage [7]; oral lavage and diaphorase, not malate, 4 h
  Formation of formazan dyes, absorbance, Means 4 h: 0.82
Oral lavage [7]; oral lavage and diaphorase, not malate, 6 h
  Formation of formazan dyes, absorbance, Means 6 h: 0.88
Oral lavage [7]; oral lavage and diaphorase, not malate, 8 h
  Formation of formazan dyes, absorbance, Means 8 h: 1.00
Oral lavage [7]; oral lavage and diaphorase, not malate, 10 h
  Formation of formazan dyes, absorbance, Means 10 h: 1.00
Oral lavage [7]; oral lavage and diaphorase, not malate, 12 h
  Formation of formazan dyes, absorbance, Means 12 h: 1.01
Oral lavage [7]; pooled oral lavage of high bleeder group, diaphorase, no added malate (TABLE 11)
  reduction to formazan dyes by pooled oral lavage: partially reduced to formazan dyes
Oral lavage [8]; 0 h
  Formation of formazan dyes, absorbance, Means 0 h: 0.51
Oral lavage [8]; 1 h
  Formation of formazan dyes, absorbance, Means 1 h: 0.70
Oral lavage [8]; 2 h
  Formation of formazan dyes, absorbance, Means 2 h: 0.80
Oral lavage [8]; 3 h
  Formation of formazan dyes, absorbance, Means 3 h: 0.84
Oral lavage [8]; 4 h
  Formation of formazan dyes, absorbance, Means 4 h: 0.85
Oral lavage [8]; 6 h
  Formation of formazan dyes, absorbance, Means 6 h: 0.91
Oral lavage [8]; 8 h
  Formation of formazan dyes, absorbance, Means 8 h: 1.05
Oral lavage [8]; 10 h
  Formation of formazan dyes, absorbance, Means 10 h: 1.09
Oral lavage [8]; 12 h
  Formation of formazan dyes, absorbance, Means 12 h: 1.33
[9]
  Absorbance, formation of formazan dyes (Means): 0.44 and 0.55 and 0.49 and 0.62
[10]
  Means absorbance 0 h: 0.19
  Means absorbance 1 h: 0.20
  Means absorbance 2 h: 0.23
  Means absorbance 3 h: 0.26
[11]; Malate dehydrogenase, diaphorase and malate, 0 h
  Formation of formazan dyes, absorbance, Means 0 h: 1.13
[11]; Malate dehydrogenase, diaphorase and malate, 1 h
  Formation of formazan dyes, absorbance, Means 1 h: 1.93
[11]; Malate dehydrogenase, diaphorase and malate, 2 h
  Formation of formazan dyes, absorbance, Means 2 h: 2.36
[11]; Malate dehydrogenase, diaphorase and malate, 3 h
  Formation of formazan dyes, absorbance, Means 3 h: 2.65
[11]; Malate dehydrogenase, diaphorase and malate, 4 h
  Formation of formazan dyes, absorbance, Means 4 h: 2.86
[11]; Malate dehydrogenase, diaphorase and malate, 6 h
  Formation of formazan dyes, absorbance, Means 6 h: 3.12
[11]; Malate dehydrogenase, diaphorase and malate, 8 h
  Formation of formazan dyes, absorbance, Means 8 h: 3.26
[11]; Malate dehydrogenase, diaphorase and malate, 10 h
  Formation of formazan dyes, absorbance, Means 10 h: 3.30
[11]; Malate dehydrogenase, diaphorase and malate, 12 h
  Formation of formazan dyes, absorbance, Means 12 h: 3.28
[11]; malate dehydrogenase, diaphorase and malate (TABLE 10), monosodium salt
  conversion to reduced formazan dyes: converted to reduced formazan dyes in a time-dependent fashion; also recorded: able to catalyze the reduction
Malate dehydrogenase [12]
  reduction by malate dehydrogenase alone: did not catalyze the reduction
Malate dehydrogenase [12]; monosodium salt
  Absorbance, formation of formazan dyes (Means): 0.35 and 0.47
Oral lavage [13]
  Absorbance, formation of formazan dyes (Means): 1.03 and 1.38 and 1.68 and 1.86
[14]
  formation of formazan dyes / precipitates with 1-methoxy PMS and NADH: converted to formazan dyes quickly
[14]; monosodium salt
  Absorbance, formation of formazan dyes (Means): 3.65 and 3.66 and 3.67
Diaphorase [15]; 0 h
  Absorbance, formation of formazan dyes (Means): 0.22
Diaphorase [15]; 1 h
  Absorbance, formation of formazan dyes (Means): 0.38
Diaphorase [15]; 2 h
  Absorbance, formation of formazan dyes (Means): 0.46
Diaphorase [15]; 3 h
  Absorbance, formation of formazan dyes (Means): 0.48
Diaphorase [15]; 4 h
  Absorbance, formation of formazan dyes (Means): 0.43
Diaphorase [15]; 6 h
  Absorbance, formation of formazan dyes (Means): 0.46
Diaphorase [15]; 8 h
  Absorbance, formation of formazan dyes (Means): 0.44
Diaphorase [15]; 10 h
  Absorbance, formation of formazan dyes (Means): 0.44
Diaphorase [15]; 12 h
  Absorbance, formation of formazan dyes (Means): 0.47
[16]
  Absorbance, formation of formazan dyes (Means): 3.37 and 3.42 and 3.41

## O=[N+]([O-])c1ccc(-n2nc(-c3ccccc3)n[n+]2-c2ccc(/N=N/c3ccc(S(=O)(=O)O)cc3)cc2S(=O)(=O)[O-])cc1 [WST-9, 2-(4-Nitrophenyl)-5-phenyl-3-[4-(4-sulfophenylazo)-2-sulfophenyl]-2H-tetrazolium, monosodium salt]
[17]
  solubility of formazan products: form precipitates

## O=C(O)CC(O)C(=O)O (stereo not drawn) [malate]
Malate dehydrogenase [18]
  malate concentrations that inhibited production of formazan dyes: above 65 mM
